Test results as given in ChEMBL document CHEMBL4371002 (J Med Chem, 2018).

Assays:
[1] = target: T1, 3-oxo-5-alpha-steroid 4-dehydrogenase 2 (Homo sapiens, UniProt P31213)
T1 sequence (P31213 whole entry): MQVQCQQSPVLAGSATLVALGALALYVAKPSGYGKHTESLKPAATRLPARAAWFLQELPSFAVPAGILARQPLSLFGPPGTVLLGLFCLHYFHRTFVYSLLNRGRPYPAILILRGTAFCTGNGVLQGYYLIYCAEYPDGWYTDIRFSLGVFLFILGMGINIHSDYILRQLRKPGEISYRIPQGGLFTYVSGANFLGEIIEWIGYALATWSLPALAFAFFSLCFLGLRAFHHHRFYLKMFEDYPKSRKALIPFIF

[2] = target: T2, 3-oxo-5-alpha-steroid 4-dehydrogenase 1 (Homo sapiens, UniProt P18405)
T2 sequence (P18405 whole entry): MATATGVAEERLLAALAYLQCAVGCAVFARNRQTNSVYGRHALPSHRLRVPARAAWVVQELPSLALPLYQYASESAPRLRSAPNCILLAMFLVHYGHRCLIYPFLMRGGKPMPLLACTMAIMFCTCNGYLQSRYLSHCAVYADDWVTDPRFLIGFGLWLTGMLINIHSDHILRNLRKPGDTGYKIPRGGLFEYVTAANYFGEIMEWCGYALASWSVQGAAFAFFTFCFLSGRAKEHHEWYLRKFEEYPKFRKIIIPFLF

[3] = target: T3, 3-oxo-5-alpha-steroid 4-dehydrogenase 2 (Rattus norvegicus, UniProt P31214)
T3 sequence (P31214 whole entry): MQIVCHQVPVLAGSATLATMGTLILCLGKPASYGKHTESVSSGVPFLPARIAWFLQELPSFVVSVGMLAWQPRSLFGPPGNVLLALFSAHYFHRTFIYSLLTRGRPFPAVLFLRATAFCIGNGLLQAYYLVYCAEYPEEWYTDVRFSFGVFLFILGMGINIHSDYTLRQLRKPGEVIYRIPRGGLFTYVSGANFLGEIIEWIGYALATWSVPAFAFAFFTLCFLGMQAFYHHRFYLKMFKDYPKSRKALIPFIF

[4] = target: T4, 3-oxo-5-alpha-steroid 4-dehydrogenase 1 (Rattus norvegicus, UniProt P24008)
T4 sequence (P24008 whole entry): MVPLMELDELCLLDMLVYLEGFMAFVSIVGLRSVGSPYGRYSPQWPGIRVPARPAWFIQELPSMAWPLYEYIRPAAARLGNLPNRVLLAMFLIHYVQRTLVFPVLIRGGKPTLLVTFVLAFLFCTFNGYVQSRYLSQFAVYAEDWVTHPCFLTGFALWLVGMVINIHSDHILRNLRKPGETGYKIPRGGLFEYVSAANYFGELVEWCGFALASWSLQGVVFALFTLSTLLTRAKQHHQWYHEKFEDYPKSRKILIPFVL

[5] = target: T2, 3-oxo-5-alpha-steroid 4-dehydrogenase 1; remark: listed apart in the source
[6] = in vitro; conditions: plasma
[7] = target: T1, 3-oxo-5-alpha-steroid 4-dehydrogenase 2; assay type: cell-based, HEK293
[8] = target: T2, 3-oxo-5-alpha-steroid 4-dehydrogenase 1; assay type: cell-based, HEK293
[9] = target: T5, Steryl-sulfatase (Homo sapiens, UniProt P08842)
T5 sequence (P08842 whole entry): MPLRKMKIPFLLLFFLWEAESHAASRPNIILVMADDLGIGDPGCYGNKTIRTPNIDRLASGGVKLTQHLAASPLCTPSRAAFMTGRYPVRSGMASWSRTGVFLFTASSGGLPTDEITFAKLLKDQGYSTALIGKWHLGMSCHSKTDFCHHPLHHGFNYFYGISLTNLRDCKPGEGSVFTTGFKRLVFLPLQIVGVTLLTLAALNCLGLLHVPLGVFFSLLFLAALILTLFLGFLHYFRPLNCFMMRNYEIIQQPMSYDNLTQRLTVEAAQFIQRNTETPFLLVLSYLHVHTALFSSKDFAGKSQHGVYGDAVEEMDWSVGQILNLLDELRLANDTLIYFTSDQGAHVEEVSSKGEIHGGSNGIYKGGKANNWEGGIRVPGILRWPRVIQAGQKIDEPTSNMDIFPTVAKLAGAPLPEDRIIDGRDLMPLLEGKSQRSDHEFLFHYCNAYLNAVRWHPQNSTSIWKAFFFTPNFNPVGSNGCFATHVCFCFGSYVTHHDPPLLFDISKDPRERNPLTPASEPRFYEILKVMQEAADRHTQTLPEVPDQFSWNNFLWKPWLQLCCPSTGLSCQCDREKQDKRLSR

[10] = target: T5, Steryl-sulfatase; remark: listed apart in the source
[11] = test system: T47D; experiment: cells; assay type: functional, cell-based; conditions: Homo sapiens
[12] = target: Peptidyl-prolyl cis-trans isomerase FKBP1A (Homo sapiens, UniProt P62942); experiment: biochemical; assay type: cell-based
Chain of Peptidyl-prolyl cis-trans isomerase FKBP1A (P62942 whole entry): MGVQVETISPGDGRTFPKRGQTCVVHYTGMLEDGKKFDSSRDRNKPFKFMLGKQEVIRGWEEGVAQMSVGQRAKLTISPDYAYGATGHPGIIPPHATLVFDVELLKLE

[13] = target: Tyrosine-protein phosphatase non-receptor type 1 (Homo sapiens, UniProt P18031); assay type: cell-based, Sf9
Chain of Tyrosine-protein phosphatase non-receptor type 1 (P18031 whole entry): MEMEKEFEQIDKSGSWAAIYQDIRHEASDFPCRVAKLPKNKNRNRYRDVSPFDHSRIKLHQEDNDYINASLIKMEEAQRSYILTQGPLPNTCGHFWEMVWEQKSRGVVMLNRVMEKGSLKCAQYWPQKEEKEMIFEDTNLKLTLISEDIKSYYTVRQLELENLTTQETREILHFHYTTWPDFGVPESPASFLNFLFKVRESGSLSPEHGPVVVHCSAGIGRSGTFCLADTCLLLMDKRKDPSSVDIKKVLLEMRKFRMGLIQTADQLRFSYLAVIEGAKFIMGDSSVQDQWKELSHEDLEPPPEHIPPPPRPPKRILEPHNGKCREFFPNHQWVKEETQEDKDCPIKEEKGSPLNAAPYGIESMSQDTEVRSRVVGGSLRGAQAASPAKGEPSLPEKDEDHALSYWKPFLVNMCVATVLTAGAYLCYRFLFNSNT

[14] = target: T1, 3-oxo-5-alpha-steroid 4-dehydrogenase 2; remark: listed apart in the source

C[C@]12C=CC(=O)N[C@@H]1CC[C@@H]1[C@@H]2CC[C@]2(C)[C@@H](C(=O)Nc3cc(C(F)(F)F)ccc3C(F)(F)F)CC[C@@H]12 [DUTASTERIDE]
IC50 [1]: < 0.1 nM | IC50 [2]: 4 nM

CC(NC(=O)[C@H]1CC[C@H]2[C@@H]3CC[C@H]4NC(=O)C=C[C@]4(C)[C@H]3CC[C@]12C)(c1ccccc1)C(F)(F)F (stereo partly drawn)
IC50 [3]: 15 nM | IC50 [4]: 15 nM | IC50 [2]: 36 nM | IC50 [5]: 16 nM

Cc1cn2c(C(=O)NCc3ccc(S(F)(F)(F)(F)F)cc3)c(C)nc2s1
fraction unbound [6]: 0.003

C[C@]12C=CC(=O)N[C@@H]1CC[C@@H]1[C@@H]2CC[C@]2(C)[C@@H](C(=O)NC(c3ccccc3)(C(F)(F)F)C(F)(F)F)CC[C@@H]12
IC50 [3]: 34 nM | IC50 [4]: 34 nM | IC50 [2]: 3.9 nM | IC50 [5]: 20 nM

CC(C)(C)NC(=O)[C@H]1CC[C@H]2[C@@H]3CC=C4C=C(F)CC[C@]4(C)[C@H]3CC[C@]12C
IC50 [7]: 480 nM | IC50 [8]: 1300 nM

C[C@]12CC[C@@H]3c4ccc(C(F)(F)S(N)(=O)=O)cc4CC[C@H]3[C@@H]1CCC2=O
Ki [9]: 28000 nM | Ki [10]: 82000 nM

O=C1Nc2ccc(S(F)(F)(F)(F)F)cc2/C1=C/c1ccc[nH]1
EC50 [11]: 490 nM

COc1cc(C(=O)C(=O)N2CCC[C@H]2C(=O)OCCCc2cccnc2)cc(OC)c1OC
Ki [12]: 4000 nM

C[C@]12CC[C@@H]3c4ccc(C(F)(F)S(=O)(=O)O)cc4CC[C@H]3[C@@H]1CCC2=O
Ki [9]: 147000 nM | Ki [10]: 73000 nM

O=C(c1ccccc1)C(Cc1ccc(C(F)(F)P(=O)(O)O)c(Br)c1)c1ccccc1 (stereo not drawn)
EC50 [13]: 1200 nM

O=C1Nc2cc(S(F)(F)(F)(F)F)ccc2/C1=C/c1ccc[nH]1
EC50 [11]: 350 nM

Cc1cn2c(C(=O)NCc3ccc(C(F)(F)F)cc3)c(C)nc2s1
fraction unbound [6]: 0.009

CC(C)(C)NC(=O)[C@H]1CC[C@H]2[C@@H]3CC[C@H]4NC(=O)C=C[C@]4(C)[C@H]3CC[C@]12C [FINASTERIDE]
IC50 [3]: 32 nM | IC50 [1]: 0.18 to 11.3 nM | IC50 [4]: 30 nM | IC50 [8]: 650 nM | IC50 [2]: 150 to 470 nM | IC50 [14]: 58 nM
